Assay results taken from US20110151020A1, “ACTIVE SUBSTANCE COMBINATION WITH GEMCITABINE FOR THE TREATMENT OF EPITHELIAL CANCER” (priority 2008, published 2011).

Key:
[1] = system: primary human pancreatic cancer tissue; assay: In vivo triple combination treatment of implanted patient pancreatic tumor tissue; design: species or system mice; details: treatment from day 21; assessed up to 100 days
Method: Tumor tissue from patient with pancreatic cancer was implanted into immunocompromised mice. Treatment was started on day 21 after implantation. Mice were randomized to gemcitabine alone or combination therapy. Tumor growth was assessed up to 100 days.

[2] = system: orthotopically implanted tumour cells; assay: In vivo treatment of orthotopic tumours with Gemcitabine and SB431542; design: species or system mice
Method: Seven days after orthotopic implantation of tumour cells, therapy with either Gemcitabine alone or in combination with targeted Nodal/Activin inhibition by SB431542 was initiated. The double combination therapy was stopped after 14 days of treatment, the single Gemcitabine treatment was continued until sacrifice of the animals. 35 days after tumour cell treatment, PET scans were done and evaluation of tumour volume was performed on day 42.

[3] = system: L3.6pl orthotopic pancreatic tumours; assay: In vivo treatment of established orthotopic pancreatic cancer (Gemcitabine, Cyclopamine, Rapamycin)
Method: Gemcitabine was administered twice a week by intraperitoneal injections at 125 mg/kg BW.
In order to test the identified combination therapy in a clinically most relevant setting, a model of established orthotopic pancreatic cancer was used in this experiment. […] The detailed experimental setup is depicted in FIG. 21A. […] Gemcitabine was given for a prolonged period of 11 weeks in analogy to clinical practice. Tumour volume was non-invasively measured on day 42 using a caliper (FIG. 21B), and was controlled via MR imaging on day 49 (FIG. 21C).
Animals and Orthotopic Implantation of Tumour Cells. Single-cell suspensions were orthotopically implanted into the pancreas of female NMRI nu/nu mice (Janvier, Le Genest-Saint-Isle, France) (Hermann et al., 2007, supra). Size and weight of the pancreatic tumours were monitored.
In vivo treatment of established pancreatic cancers. Seven days after orthotopic implantation of L3.6pl cells, mice were randomized to the respective treatment groups. Gemcitabine was administered biweekly (125 mg/kg i.p.). […] Rapamycin (5 mg/kg/day; Wyeth, Madison, N.J.) was orally administered via the drinking water as reported previously (Huber et al., 2007, supra).

[4] = system: CD133+ CXCR4+ CSC subpopulation; assay: Flow cytometry of migrating CSC; format: cell-based, human
[5] = system: side population (SP) cells; assay: Side population (Hoechst 33342 exclusion); format: cell-based, human
Method: First, pancreatic CSC were clonally expanded as CSC-enriched spheres (FIGS. 18C1-18C5). Floating spheres were treated in ultra low adhesion 6-well plates. After completion of the treatment, five randomly selected high-power fields were analyzed.

For `Nc1ccn(C2OC(CO)C(O)C2(F)F)c(=O)n1` (centres unmarked) [Gemcitabine, 4-amino-1-[3,3-difluoro-4-hydroxy-5-(hydroxymethyl)tetrahydrofuran-2-yl]-1H-pyrimidin-2-one], the tumor growth [1] was “virtually unrestricted growth”, the tumour size ([2]; mouse, in vivo) was “reduction of tumour size” and the “tumour formation / tumour incidence” value ([2]; therapy from day 7, combination 14 days, PET day 35, volume day 42) was “unaffected”. For the same compound, the “prolongation of median survival” value ([3]; Gemcitabine 125 mg/kg i.p. twice a week) was 22 days, the survival ([3]; Gemcitabine vs control, CRG vs Gemcitabine alone) was “significantly prolonged” and the tumour size ([3]; compared to control) was “significantly smaller compared to control”. For the same compound, the “tumour volume on day 42 (caliper)” value ([3]; day 42) was “considerable tumor size”, the “tumour volume via MR imaging on day 49” value ([3]; day 49) was “considerable tumor size” and the “latest day of survival” value ([3]; mouse, in vivo) was no more than 71 days. The median survival ([3]; mouse, in vivo) was 57 days, the tumour take rate ([3]; mouse, in vivo) was 100% and the “CD133+ cells in the residual tumour tissue” value ([3]; orthotopic mouse model of xenotransplanted human pancreatic cancer) was “significant enrichment”. For the same compound, the “CD133+ CXCR4+ migrating CSC” value [4] was “enriches” and the “side population (SP) cells” value [5] was “unaffected”.
